These results are taken from paper PMC6957243 (Bioorganic & medicinal chemistry letters, 2014).

Assay [1] deals with T1, rat TRPV1 heterologously expressed in Chinese hamster ovary (CHO) cells (Rattus norvegicus, UniProt O35433). The assay can be described thus: binding competition assay with [3H]RTX. As to conditions: respectively; for increase in binding affinity: 19 and 20 compared to (R)-5a and (S)-5a; for increases in binding affinity: 24 and 28 compared to 5b and 5c.
Assay [2] concerns the target T1, rat TRPV1 heterologously expressed in Chinese hamster ovary (CHO) cells. Kind of assay: functional 45Ca2+ uptake assay, antagonism of capsaicin. As to conditions: 24 and 28 compared to 5b and 5c, respectively. The assay is classed as cell-based.

T1 sequence (O35433 whole entry): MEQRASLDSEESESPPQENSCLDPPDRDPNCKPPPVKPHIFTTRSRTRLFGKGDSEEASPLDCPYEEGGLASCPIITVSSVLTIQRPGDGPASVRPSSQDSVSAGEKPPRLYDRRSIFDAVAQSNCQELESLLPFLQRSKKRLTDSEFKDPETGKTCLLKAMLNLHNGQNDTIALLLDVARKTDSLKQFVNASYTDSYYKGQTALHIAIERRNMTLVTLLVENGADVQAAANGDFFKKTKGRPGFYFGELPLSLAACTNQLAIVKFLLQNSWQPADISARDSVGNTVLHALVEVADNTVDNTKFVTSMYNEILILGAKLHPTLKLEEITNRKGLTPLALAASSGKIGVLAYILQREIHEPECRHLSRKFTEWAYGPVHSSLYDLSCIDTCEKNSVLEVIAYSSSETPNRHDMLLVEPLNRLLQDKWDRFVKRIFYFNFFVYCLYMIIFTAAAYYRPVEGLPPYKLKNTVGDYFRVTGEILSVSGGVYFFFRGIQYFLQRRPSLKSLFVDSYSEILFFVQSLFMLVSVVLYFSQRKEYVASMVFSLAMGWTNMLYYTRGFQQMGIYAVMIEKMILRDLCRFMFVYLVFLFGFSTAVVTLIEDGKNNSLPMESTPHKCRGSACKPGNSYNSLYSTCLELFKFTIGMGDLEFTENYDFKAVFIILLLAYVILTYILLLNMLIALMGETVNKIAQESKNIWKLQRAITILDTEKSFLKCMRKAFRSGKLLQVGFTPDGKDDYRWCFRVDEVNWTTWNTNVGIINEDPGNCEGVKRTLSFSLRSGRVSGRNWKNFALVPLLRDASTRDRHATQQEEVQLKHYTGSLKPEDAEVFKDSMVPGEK

As for `C[C@@H](NC(=S)NC[C@@H](COC(=O)C(C)(C)C)Cc1ccccc1)c1ccc(NS(C)(=O)=O)cc1` [compound 20], the “increase in binding affinity” value in assay [1] is listed as roughly 10 fold.
The same measure, in the same setting: to `C[C@@H](NC(=S)NC[C@H](COC(=O)C(C)(C)C)Cc1ccccc1)c1ccc(NS(C)(=O)=O)cc1` [compound 19] belongs roughly 10 fold.
In turn, `C[C@@H](NC(=S)NCC(COC(=O)C(C)(C)C)Cc1ccc(C(C)(C)C)cc1)c1ccc(NS(C)(=O)=O)cc1` (stereo partly drawn) [compound 28] gave an increases in antagonism in assay [2] of 4 fold. Moreover, the “increases in binding affinity” value in assay [1] is reported as 6 fold.
On the same counts, the results for `Cc1ccc(CC(CNC(=S)N[C@H](C)c2ccc(NS(C)(=O)=O)cc2)COC(=O)C(C)(C)C)cc1C` (stereo partly drawn) [compound 24] are 10 fold and 5 fold.
